This test deals with T1, recombinant guanylate cyclase reporter cell line (Rattus norvegicus, UniProt P19686+P20595).
T1 construct: expressed in transfected cells; host or cells: recombinant reporter cell line
T1 sequence (P19686 1-690): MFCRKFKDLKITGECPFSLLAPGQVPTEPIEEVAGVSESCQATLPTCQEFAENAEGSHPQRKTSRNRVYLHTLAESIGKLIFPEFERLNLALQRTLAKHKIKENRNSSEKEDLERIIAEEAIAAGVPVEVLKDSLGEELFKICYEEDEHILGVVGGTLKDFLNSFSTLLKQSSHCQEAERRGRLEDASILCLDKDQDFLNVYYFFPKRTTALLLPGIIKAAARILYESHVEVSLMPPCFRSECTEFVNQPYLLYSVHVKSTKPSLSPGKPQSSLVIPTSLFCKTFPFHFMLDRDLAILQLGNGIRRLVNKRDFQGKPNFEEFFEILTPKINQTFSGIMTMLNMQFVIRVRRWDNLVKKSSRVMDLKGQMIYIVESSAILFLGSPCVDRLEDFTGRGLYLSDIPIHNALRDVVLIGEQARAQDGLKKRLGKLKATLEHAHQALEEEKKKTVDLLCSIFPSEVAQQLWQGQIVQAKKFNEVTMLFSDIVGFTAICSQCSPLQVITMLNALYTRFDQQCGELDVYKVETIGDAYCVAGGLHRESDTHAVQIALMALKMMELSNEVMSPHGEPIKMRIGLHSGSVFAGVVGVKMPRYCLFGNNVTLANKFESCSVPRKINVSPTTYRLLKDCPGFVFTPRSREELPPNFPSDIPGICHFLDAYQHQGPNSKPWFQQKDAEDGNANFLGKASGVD
T1 sequence (P20595 1-619): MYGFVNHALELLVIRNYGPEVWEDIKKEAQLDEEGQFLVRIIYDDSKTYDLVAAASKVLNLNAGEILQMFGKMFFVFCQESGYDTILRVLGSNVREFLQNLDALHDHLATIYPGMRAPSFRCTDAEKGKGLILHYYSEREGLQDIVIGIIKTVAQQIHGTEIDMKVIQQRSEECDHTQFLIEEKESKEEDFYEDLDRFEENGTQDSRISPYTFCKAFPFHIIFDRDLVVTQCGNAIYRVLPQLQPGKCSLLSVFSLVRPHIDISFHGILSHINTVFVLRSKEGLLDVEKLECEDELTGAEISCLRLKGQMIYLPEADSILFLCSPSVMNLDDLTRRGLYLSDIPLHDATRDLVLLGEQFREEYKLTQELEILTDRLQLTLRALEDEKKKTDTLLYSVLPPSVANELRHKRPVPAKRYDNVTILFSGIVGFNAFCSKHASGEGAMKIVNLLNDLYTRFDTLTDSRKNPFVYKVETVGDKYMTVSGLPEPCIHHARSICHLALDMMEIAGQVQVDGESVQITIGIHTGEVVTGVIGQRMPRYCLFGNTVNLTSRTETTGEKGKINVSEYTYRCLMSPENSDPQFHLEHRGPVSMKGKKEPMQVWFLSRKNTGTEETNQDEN
As to the kind of experiment: Action on recombinant guanylate cyclase reporter cell line. Type of test: cell-based. Particulars: in some cases mean values from individual determinations. Put shortly: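 Reported value is the minimal effective concentration (MEC), in some cases a mean of single runs, taken from a recombinant rat guanylate cyclase reporter cell line.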

As for `Cc1cc(OCc2c(F)cccc2F)c2nc(C)c(C(=O)NCCN3C[C@@H](C)O[C@@H](C)C3)n2c1` [Example 167, 8-[(2,6-difluorobenzyl)oxy]-N-{2-[(2R,6S)-2,6-dimethylmorpholin-4-yl]ethyl}-2,6-dimethyl-imidazo[1,2-a]pyridine-3-carboxamide], the “MEC (minimal effective concentration)” value is 1.00 µM. `Cc1nc2c(OCc3c(F)cccc3F)cccn2c1C(=O)NCCN1CCN(C2CC2)CC1` [Example 168, N-[2-(4-Cyclopropylpiperazin-1-yl)ethyl]-8-[(2,6-difluorobenzyl)oxy]-2-methylimidazo[1,2-a]-pyridine-3-carboxamide]: the “MEC (minimal effective concentration)” value came out at 1.00 µM. As for `Cc1nc2c(OCc3c(F)cccc3F)cccn2c1C(=O)NCCNCC(F)F` [Example 169], the “MEC (minimal effective concentration)” value came to 1.65 µM.

In the case of `Cc1nc2c(OCc3c(F)cccc3F)cccn2c1C(=O)N[C@H](C)CN1CCOCC1` [Example 170, 8-[(2,6-difluorobenzyl)oxy]-2-methyl-N-[(2R)-1-(morpholin-4-yl)propan-2-yl]imidazo[1,2-a]-pyridine-3-carboxamide], the “MEC (minimal effective concentration)” value is 3.00 µM.

On to `Cc1nc2c(OCc3c(F)cccc3F)cccn2c1C(=O)N[C@@H](C)CN1CCOCC1` [Example 171, 8-[(2,6-difluorobenzyl)oxy]-2-methyl-N-[(2S)-1-(morpholin-4-yl)propan-2-yl]imidazo[1,2-a]-pyridine-3-carboxamide], for which the “MEC (minimal effective concentration)” value stood at 1.00 µM. To `Cc1cc(OCc2c(F)cccc2F)c2nc(C)c(C(=O)NC[C@@H]3CCCCN3)n2c1` [Example 172, 8-[(2,6-Difluorobenzyl)oxy]-2,6-dimethyl-N-[(2S)-piperidin-2-ylmethyl]imidazo[1,2-a]pyridine-3-carboxamide] belongs 0.30 µM; to `Cc1cc(OCc2c(F)cccc2F)c2nc(C)c(C(=O)NCC3(N)COC3)n2c1` [Example 216, N-[(3-Aminooxetan-3-yl)methyl]-8-[(2,6-difluorobenzyl)oxy]-2,6-dimethylimidazo[1,2-a]pyridine-3-carboxamide], 1.00 µM. As for `Cc1cc(OCc2c(F)cccc2F)c2nc(C)c(C(=O)N[C@@H]3CCCC[C@H]3N)n2c1` [Example 251, ent-N-[(1R,2R)-2-Aminocyclohexyl]-8-[(2,6-difluorobenzyl)oxy]-2,6-dimethylimidazo[1,2-a]-pyridine-3-carboxamide], the figure is 3.00 µM. For `CCC(N)(CC)CNC(=O)c1c(C)nc2c(OCc3c(F)cccc3F)cccn12` [Example 253, N-(2-Amino-2-ethylbutyl)-8-[(2,6-difluorobenzyl)oxy]-2-methylimidazo[1,2-a]pyridine-3-carboxamide], the “MEC (minimal effective concentration)” value was determined as 0.10 µM. `Cc1cc(OCc2c(F)cccc2F)c2nc(C)c(C(=O)NCCNC(C)(C)C)n2c1` [Example 255, N-[2-(tert-Butylamino)ethyl]-8-[(2,6-difluorobenzyl)oxy]-2,6-dimethylimidazo[1,2-a]pyridine-3-carboxamide]: the “MEC (minimal effective concentration)” value was 0.30 µM. In the case of `CCCC(C)(N)CNC(=O)c1c(C)nc2c(OC(C)c3c(F)cccc3F)cc(C)cn12` (stereo not shown) [Example 257, N-(2-Amino-2-methylpentyl)-8-[1-(2,6-difluorophenyl)ethoxy]-2,6-dimethylimidazo[1,2-a]-pyridine-3-carboxamide], the “MEC (minimal effective concentration)” value was determined as 1.00 µM. Consider `COC(=O)[C@@H](N)CCCCNC(=O)c1c(C)nc2c(OCc3c(F)cccc3F)cc(C)cn12` [Example 294, Methyl N^6-({8-[(2,6-difluorobenzyl)oxy]-2,6-dimethylimidazo[1,2-a]pyridin-3-yl}carbonyl)-L-lysinate], for which the “MEC (minimal effective concentration)” value came out at 0.065 µM. Consider `CCCC(C)(N)CNC(=O)c1c(C(F)(F)F)nc2c(OCc3c(F)cccc3F)cc(C)cn12` (stereo not drawn) [Example 305, ent-N-(2-amino-2-methylpentyl)-8-[(2,6-difluorobenzyl)oxy]-6-methyl-2-(trifluoromethyl)imidazo[1,2-a]pyridine-3-carboxamide], for which the “MEC (minimal effective concentration)” value amounted to 0.10 µM. For the molecule `CCCC(C)(N)CNC(=O)c1c(C)nc2c(OCc3c(F)cccc3F)cc(Br)cn12` (stereo not drawn) [Example 306, ent-N-(2-amino-2-methylpentyl)-6-bromo-8-[(2,6-difluorobenzyl)oxy]-2-methylimidazo[1,2-a]pyridine-3-carboxamide], the “MEC (minimal effective concentration)” value is 0.10 µM. For the molecule `Cc1cc(OCc2c(F)cccc2F)c2nc(C)c(C(=O)N[C@H]3C[C@H]4CN(C)CCN4C3)n2c1` [Example 314, 8-[(2,6-Difluorobenzyl)oxy]-2,6-dimethyl-N-[(7S,8aS)-2-methyloctahydropyrrolo[1,2-a]pyrazin-7-yl]imidazo[1,2-a]pyridine-3-carboxamide], the “MEC (minimal effective concentration)” value came out at 0.30 µM.

Regarding `CCC(C)(CN)NC(=O)c1c(C)nc2c(OCc3c(F)ccc(F)c3F)cc(C)cn12` (stereo not drawn) [Example 315, ent-N-(1-amino-2-methylbutan-2-yl)-2,6-dimethyl-8-[(2,3,6-trifluorobenzyl)oxy]imidazo[1,2-a]pyridine-3-carboxamide], the “MEC (minimal effective concentration)” value is 0.30 µM. On to `CCCC(C)(N)CNC(=O)c1c(C)nc2c(OCc3c(F)cccc3F)cccn12` (stereo not drawn) [Example 318, ent-N-(2-amino-2-methylpentyl)-8-[(2,6-difluorobenzyl)oxy]-2-methylimidazo[1,2-a]pyridine-3-carboxamide], for which the “MEC (minimal effective concentration)” value came to 0.30 µM.

Consider `COC(=O)[C@@H](N)CNC(=O)c1c(C)nc2c(OCc3c(F)cccc3F)cc(C)cn12` [Example 319, Methyl 3-[({8-[(2,6-difluorobenzyl)oxy]-2,6-dimethylimidazo[1,2-a]pyridin-3-yl}carbonyl)amino]-L-alaninate], for which the “MEC (minimal effective concentration)” value turned out to be 0.30 µM. In the case of `CCCC(C)(N)CNC(=O)c1c(C2CC2)nc2c(OCc3c(F)cccc3F)cc(C)cn12` (stereo not drawn) [Example 322, ent-N-(2-amino-2-methylpentyl)-2-cyclopropyl-8-[(2,6-difluorobenzyl)oxy]-6-methylimidazo[1,2-a]pyridine-3-carboxamide], the “MEC (minimal effective concentration)” value came to 0.30 µM. As for `CCCC(C)(N)CNC(=O)c1c(C)nc2c(OCc3c(F)cccc3F)cc(CC)cn12` (stereo not drawn) [Example 323, ent-N-(2-amino-2-methylpentyl)-8-[(2,6-difluorobenzyl)oxy]-6-ethyl-2-methylimidazo[1,2-a]pyridine-3-carboxamide], the “MEC (minimal effective concentration)” value was found to be 0.30 µM.

Take `Cc1cc(OCc2c(F)cccc2F)c2nc(C)c(C(=O)N[C@@H]3CC[C@](C)(N)C3(C)C)n2c1` [Example 324, N-[(1R,3S)-3-amino-2,2,3-trimethylcyclopentyl]-8-[(2,6-difluorobenzyl)oxy]-2,6-dimethylimidazo[1,2-a]pyridine-3-carboxamide]: the “MEC (minimal effective concentration)” value amounted to 1.00 µM. With `CCCc1nc2c(OCc3c(F)cccc3F)cc(C)cn2c1C(=O)NCC(C)(N)CC` (stereo not drawn) [Example 327, ent-N-(2-amino-2-methylbutyl)-8-[(2,6-difluorobenzyl)oxy]-6-methyl-2-propylimidazo[1,2-a]pyridine-3-carboxamide], the “MEC (minimal effective concentration)” value is 1.00 µM.

As to `CCCC(C)(N)CNC(=O)c1c(CC)nc2c(OCc3c(F)cccc3F)cc(C)cn12` (stereo not drawn) [Example 338, ent-N-(2-amino-2-methylpentyl)-8-[(2,6-difluorobenzyl)oxy]-2-ethyl-6-methylimidazo[1,2-a]pyridine-3-carboxamide], the “MEC (minimal effective concentration)” value was 0.10 µM. For `Cc1cc(OCc2c(F)cccc2F)c2nc(C)c(C(=O)NCC(C)(C)NCCO)n2c1` [Example 349, 8-[(2,6-Difluorobenzyl)oxy]-N-{2-[(2-hydroxyethyl)amino]-2-methylpropyl}-2,6-dimethylimidazo[1,2-a]pyridine-3-carboxamide], the “MEC (minimal effective concentration)” value is 1.00 µM. As for `COc1cccc(F)c1COc1cc(C)cn2c(C(=O)NCC(C)(C)N)c(C)nc12` [Example 352, N-(2-amino-2-methylpropyl)-8-[(2-fluoro-6-methoxybenzyl)oxy]-2,6-dimethylimidazo[1,2-a]pyridine-3-carboxamide], the “MEC (minimal effective concentration)” value worked out at 3.00 µM.

The values are drawn from patent publication US20150274719A1, “AMINO-SUBSTITUTED IMIDAZO[1,2-A]PYRIDINECARBOXAMIDES AND THEIR USE” (BAYER PHARMA AKTIENGESELLSCHAFT, priority 2012, published 2015).
